Experimental data published in the supplement of paper PMC10307832.

How the values were obtained:
Assay in all cases: relative viability (nuclei count vs DMSO), 5 days (fraction); higher = more cells survive
Selumetinib + Foretinib = compound: Cn1cnc2c(F)c(Nc3ccc(Br)cc3Cl)c(C(=O)NOCCO)cc21 [Selumetinib] + COc1cc2c(Oc3ccc(NC(=O)C4(C(=O)Nc5ccc(F)cc5)CC4)cc3F)ccnc2cc1OCCCN1CCOCC1 [Foretinib] (partner 0.25 µM)
In short: (§1)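 For relative viability, nuclei counts in treated wells were divided by those in vehicle wells. Lung cancer cell lines had been pin-tool dosed in 1536-well plates the day after seeding and cultured for 5 days, then fixed and stained in one step (final 0.05% Triton X-100, 1% formaldehyde, 1 ug/ml Hoechst) and imaged at 4×. Doses were one drug alone or a fixed anchor-drug dose plus five library-drug doses (not always all listed) in √10 steps, and values are duplicate-plate medians.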

Selumetinib + Pemetrexed = compound: Cn1cnc2c(F)c(Nc3ccc(Br)cc3Cl)c(C(=O)NOCCO)cc21 [Selumetinib] + Nc1nc2[nH]cc(CCc3ccc(C(=O)N[C@@H](CCC(=O)O)C(=O)O)cc3)c2c(=O)[nH]1 [Pemetrexed] (partner 0.2 µM)
In short: as §1

Venetoclax + Pemetrexed = compound: CC1(C)CCC(CN2CCN(c3ccc(C(=O)NS(=O)(=O)c4ccc(NCC5CCOCC5)c([N+](=O)[O-])c4)c(Oc4cnc5[nH]ccc5c4)c3)CC2)=C(c2ccc(Cl)cc2)C1 [Venetoclax] + Nc1nc2[nH]cc(CCc3ccc(C(=O)N[C@@H](CCC(=O)O)C(=O)O)cc3)c2c(=O)[nH]1 [Pemetrexed] (partner 0.2 µM)
In short: as §1

Selumetinib + Trametinib = compound: Cn1cnc2c(F)c(Nc3ccc(Br)cc3Cl)c(C(=O)NOCCO)cc21 [Selumetinib] + CC(=O)Nc1cccc(-n2c(=O)n(C3CC3)c(=O)c3c(Nc4ccc(I)cc4F)n(C)c(=O)c(C)c32)c1 [Trametinib] (partner 0.02 µM)
In short: as §1

BEN showed a relative viability (Selumetinib + Foretinib; first compound 0.02 µM) of 0.692, a relative viability (Selumetinib + Foretinib; first compound 0.06325 µM) of 0.714 and a relative viability (Selumetinib + Foretinib; first compound 0.2 µM) of 0.667. The relative viability (Selumetinib + Foretinib; first compound 0.6325 µM) was 0.546, the relative viability (Selumetinib + Pemetrexed; first compound 0.02 µM) was 0.806 and the relative viability (Selumetinib + Pemetrexed; first compound 0.06325 µM) was 0.765. For the same cell line, the relative viability (Selumetinib + Pemetrexed; first compound 0.2 µM) was 0.697, the relative viability (Selumetinib + Pemetrexed; first compound 0.6325 µM) was 0.888 and the relative viability (Venetoclax + Pemetrexed; first compound 0.01 µM) was 0.811. The relative viability (Venetoclax + Pemetrexed; first compound 0.03162 µM) was 0.826, the relative viability (Venetoclax + Pemetrexed; first compound 0.1 µM) was 0.712 and the relative viability (Venetoclax + Pemetrexed; first compound 0.3162 µM) was 0.855. The relative viability (Venetoclax + Pemetrexed; first compound 1 µM) was 0.769, the relative viability (Selumetinib + Trametinib; first compound 0.02 µM) was 1.06 and the relative viability (Selumetinib + Trametinib; first compound 0.06325 µM) was 1.07. For the same cell line, the relative viability (Selumetinib + Trametinib; first compound 0.2 µM) was 1.14 and the relative viability (Selumetinib + Trametinib; first compound 0.6325 µM) was 1.
With EMC-BAC-2 the relative viability (Selumetinib + Foretinib; first compound 0.02 µM) was 0.882, the relative viability (Selumetinib + Foretinib; first compound 0.06325 µM) was 0.972 and the relative viability (Selumetinib + Foretinib; first compound 0.2 µM) was 0.85. The relative viability (Selumetinib + Foretinib; first compound 0.6325 µM) was 0.875, the relative viability (Selumetinib + Pemetrexed; first compound 0.02 µM) was 0.508 and the relative viability (Selumetinib + Pemetrexed; first compound 0.06325 µM) was 0.539. For the same cell line, the relative viability (Selumetinib + Pemetrexed; first compound 0.2 µM) was 0.522, the relative viability (Selumetinib + Pemetrexed; first compound 0.6325 µM) was 0.574 and the relative viability (Venetoclax + Pemetrexed; first compound 0.01 µM) was 0.406. For the same cell line, the relative viability (Venetoclax + Pemetrexed; first compound 0.03162 µM) was 0.457, the relative viability (Venetoclax + Pemetrexed; first compound 0.1 µM) was 0.407 and the relative viability (Venetoclax + Pemetrexed; first compound 0.3162 µM) was 0.467. The relative viability (Venetoclax + Pemetrexed; first compound 1 µM) was 0.417, the relative viability (Selumetinib + Trametinib; first compound 0.02 µM) was 0.909 and the relative viability (Selumetinib + Trametinib; first compound 0.06325 µM) was 0.833. For the same cell line, the relative viability (Selumetinib + Trametinib; first compound 0.2 µM) was 0.937 and the relative viability (Selumetinib + Trametinib; first compound 0.6325 µM) was 0.774.
For NCI-H1299, the relative viability (Selumetinib + Foretinib; first compound 0.02 µM) was 1.23, the relative viability (Selumetinib + Foretinib; first compound 0.06325 µM) was 1.08 and the relative viability (Selumetinib + Foretinib; first compound 0.2 µM) was 1.09. It also gave a relative viability (Selumetinib + Foretinib; first compound 0.6325 µM) of 0.935.
With ABC-1 the relative viability (Selumetinib + Foretinib; first compound 0.02 µM) was 0.906, the relative viability (Selumetinib + Foretinib; first compound 0.06325 µM) was 0.882 and the relative viability (Selumetinib + Foretinib; first compound 0.2 µM) was 0.951. The relative viability (Selumetinib + Foretinib; first compound 0.6325 µM) was 0.767.
Cell Line NCI-H2170 has a relative viability (Selumetinib + Foretinib; first compound 0.02 µM) of 0.987, a relative viability (Selumetinib + Foretinib; first compound 0.06325 µM) of 0.954 and a relative viability (Selumetinib + Foretinib; first compound 0.2 µM) of 0.967. For the same cell line, the relative viability (Selumetinib + Foretinib; first compound 0.6325 µM) was 0.952, the relative viability (Selumetinib + Pemetrexed; first compound 0.02 µM) was 0.236 and the relative viability (Selumetinib + Pemetrexed; first compound 0.06325 µM) was 0.266. For the same cell line, the relative viability (Selumetinib + Pemetrexed; first compound 0.2 µM) was 0.254, the relative viability (Selumetinib + Pemetrexed; first compound 0.6325 µM) was 0.265 and the relative viability (Venetoclax + Pemetrexed; first compound 0.01 µM) was 0.25. For the same cell line, the relative viability (Venetoclax + Pemetrexed; first compound 0.03162 µM) was 0.278, the relative viability (Venetoclax + Pemetrexed; first compound 0.1 µM) was 0.259 and the relative viability (Venetoclax + Pemetrexed; first compound 0.3162 µM) was 0.259. The relative viability (Venetoclax + Pemetrexed; first compound 1 µM) was 0.253, the relative viability (Selumetinib + Trametinib; first compound 0.02 µM) was 0.934 and the relative viability (Selumetinib + Trametinib; first compound 0.06325 µM) was 0.957. For the same cell line, the relative viability (Selumetinib + Trametinib; first compound 0.2 µM) was 0.853 and the relative viability (Selumetinib + Trametinib; first compound 0.6325 µM) was 0.921.
For NCI-H1437, the relative viability (Selumetinib + Foretinib; first compound 0.02 µM) was 1.33, the relative viability (Selumetinib + Foretinib; first compound 0.06325 µM) was 1.3 and the relative viability (Selumetinib + Foretinib; first compound 0.2 µM) was 1.17. For the same cell line, the relative viability (Selumetinib + Foretinib; first compound 0.6325 µM) was 0.708, the relative viability (Selumetinib + Pemetrexed; first compound 0.02 µM) was 0.302 and the relative viability (Selumetinib + Pemetrexed; first compound 0.06325 µM) was 0.253. The relative viability (Selumetinib + Pemetrexed; first compound 0.2 µM) was 0.246, the relative viability (Selumetinib + Pemetrexed; first compound 0.6325 µM) was 0.259 and the relative viability (Venetoclax + Pemetrexed; first compound 0.01 µM) was 0.309. For the same cell line, the relative viability (Venetoclax + Pemetrexed; first compound 0.03162 µM) was 0.316, the relative viability (Venetoclax + Pemetrexed; first compound 0.1 µM) was 0.328 and the relative viability (Venetoclax + Pemetrexed; first compound 0.3162 µM) was 0.309. For the same cell line, the relative viability (Venetoclax + Pemetrexed; first compound 1 µM) was 0.308, the relative viability (Selumetinib + Trametinib; first compound 0.02 µM) was 0.558 and the relative viability (Selumetinib + Trametinib; first compound 0.06325 µM) was 0.546. For the same cell line, the relative viability (Selumetinib + Trametinib; first compound 0.2 µM) was 0.516 and the relative viability (Selumetinib + Trametinib; first compound 0.6325 µM) was 0.528.
EBC-1 showed a relative viability (Selumetinib + Foretinib; first compound 0.02 µM) of 0.0932, a relative viability (Selumetinib + Foretinib; first compound 0.06325 µM) of 0.0928 and a relative viability (Selumetinib + Foretinib; first compound 0.2 µM) of 0.114. The relative viability (Selumetinib + Foretinib; first compound 0.6325 µM) was 0.109.
NCI-H3122 showed a relative viability (Selumetinib + Foretinib; first compound 0.02 µM) of 0.866, a relative viability (Selumetinib + Foretinib; first compound 0.06325 µM) of 0.774 and a relative viability (Selumetinib + Foretinib; first compound 0.2 µM) of 0.719. It also gave a relative viability (Selumetinib + Foretinib; first compound 0.6325 µM) of 0.583, a relative viability (Selumetinib + Pemetrexed; first compound 0.02 µM) of 0.181 and a relative viability (Selumetinib + Pemetrexed; first compound 0.06325 µM) of 0.171. The relative viability (Selumetinib + Pemetrexed; first compound 0.2 µM) was 0.156, the relative viability (Selumetinib + Pemetrexed; first compound 0.6325 µM) was 0.169 and the relative viability (Venetoclax + Pemetrexed; first compound 0.01 µM) was 0.179. For the same cell line, the relative viability (Venetoclax + Pemetrexed; first compound 0.03162 µM) was 0.2, the relative viability (Venetoclax + Pemetrexed; first compound 0.1 µM) was 0.199 and the relative viability (Venetoclax + Pemetrexed; first compound 0.3162 µM) was 0.188. It also gave a relative viability (Venetoclax + Pemetrexed; first compound 1 µM) of 0.198, a relative viability (Selumetinib + Trametinib; first compound 0.02 µM) of 0.202 and a relative viability (Selumetinib + Trametinib; first compound 0.06325 µM) of 0.212. The relative viability (Selumetinib + Trametinib; first compound 0.2 µM) was 0.199 and the relative viability (Selumetinib + Trametinib; first compound 0.6325 µM) was 0.266.
With NCI-H2023 the relative viability (Selumetinib + Foretinib; first compound 0.02 µM) was 0.709, the relative viability (Selumetinib + Foretinib; first compound 0.06325 µM) was 0.811 and the relative viability (Selumetinib + Foretinib; first compound 0.2 µM) was 0.6. The relative viability (Selumetinib + Foretinib; first compound 0.6325 µM) was 0.572, the relative viability (Selumetinib + Pemetrexed; first compound 0.02 µM) was 0.247 and the relative viability (Selumetinib + Pemetrexed; first compound 0.06325 µM) was 0.137. The relative viability (Selumetinib + Pemetrexed; first compound 0.2 µM) was 0.239, the relative viability (Selumetinib + Pemetrexed; first compound 0.6325 µM) was 0.195 and the relative viability (Venetoclax + Pemetrexed; first compound 0.01 µM) was 0.238. For the same cell line, the relative viability (Venetoclax + Pemetrexed; first compound 0.03162 µM) was 0.243, the relative viability (Venetoclax + Pemetrexed; first compound 0.1 µM) was 0.263 and the relative viability (Venetoclax + Pemetrexed; first compound 0.3162 µM) was 0.264. For the same cell line, the relative viability (Venetoclax + Pemetrexed; first compound 1 µM) was 0.203, the relative viability (Selumetinib + Trametinib; first compound 0.02 µM) was 0.51 and the relative viability (Selumetinib + Trametinib; first compound 0.06325 µM) was 0.467. For the same cell line, the relative viability (Selumetinib + Trametinib; first compound 0.2 µM) was 0.535 and the relative viability (Selumetinib + Trametinib; first compound 0.6325 µM) was 0.51.
NCI-H460 was tested, and the relative viability (Selumetinib + Foretinib; first compound 0.02 µM) was 0.949, the relative viability (Selumetinib + Foretinib; first compound 0.06325 µM) was 0.899 and the relative viability (Selumetinib + Foretinib; first compound 0.2 µM) was 0.886. For the same cell line, the relative viability (Selumetinib + Foretinib; first compound 0.6325 µM) was 0.404, the relative viability (Selumetinib + Pemetrexed; first compound 0.02 µM) was 0.0568 and the relative viability (Selumetinib + Pemetrexed; first compound 0.06325 µM) was 0.082. The relative viability (Selumetinib + Pemetrexed; first compound 0.2 µM) was 0.0617, the relative viability (Selumetinib + Pemetrexed; first compound 0.6325 µM) was 0.0698 and the relative viability (Venetoclax + Pemetrexed; first compound 0.01 µM) was 0.062. The relative viability (Venetoclax + Pemetrexed; first compound 0.03162 µM) was 0.0571, the relative viability (Venetoclax + Pemetrexed; first compound 0.1 µM) was 0.0565 and the relative viability (Venetoclax + Pemetrexed; first compound 0.3162 µM) was 0.0577. It also gave a relative viability (Venetoclax + Pemetrexed; first compound 1 µM) of 0.064, a relative viability (Selumetinib + Trametinib; first compound 0.02 µM) of 0.115 and a relative viability (Selumetinib + Trametinib; first compound 0.06325 µM) of 0.139. It also gave a relative viability (Selumetinib + Trametinib; first compound 0.2 µM) of 0.138 and a relative viability (Selumetinib + Trametinib; first compound 0.6325 µM) of 0.104.
PC-3 [JPC-3] was tested, and the relative viability (Selumetinib + Foretinib; first compound 0.02 µM) was 0.944, the relative viability (Selumetinib + Foretinib; first compound 0.06325 µM) was 0.92 and the relative viability (Selumetinib + Foretinib; first compound 0.2 µM) was 0.922. It also gave a relative viability (Selumetinib + Foretinib; first compound 0.6325 µM) of 0.713, a relative viability (Selumetinib + Pemetrexed; first compound 0.02 µM) of 1.2 and a relative viability (Selumetinib + Pemetrexed; first compound 0.06325 µM) of 0.819. For the same cell line, the relative viability (Selumetinib + Pemetrexed; first compound 0.2 µM) was 0.82, the relative viability (Selumetinib + Pemetrexed; first compound 0.6325 µM) was 0.836 and the relative viability (Venetoclax + Pemetrexed; first compound 0.01 µM) was 1.05. It also gave a relative viability (Venetoclax + Pemetrexed; first compound 0.03162 µM) of 1.45, a relative viability (Venetoclax + Pemetrexed; first compound 0.1 µM) of 1.18 and a relative viability (Venetoclax + Pemetrexed; first compound 0.3162 µM) of 1.26. For the same cell line, the relative viability (Venetoclax + Pemetrexed; first compound 1 µM) was 1.01, the relative viability (Selumetinib + Trametinib; first compound 0.02 µM) was 0.65 and the relative viability (Selumetinib + Trametinib; first compound 0.06325 µM) was 0.641. It also gave a relative viability (Selumetinib + Trametinib; first compound 0.2 µM) of 0.685 and a relative viability (Selumetinib + Trametinib; first compound 0.6325 µM) of 0.656.
